These results are taken from article PMC4923153, “Protection of Primary Dopaminergic Midbrain Neurons by GPR139 Agonists Supports Different Mechanisms of MPP^+ and Rotenone Toxicity” (Frontiers in Cellular Neuroscience, 2016).

Series [1] has as its system primary DA midbrain neurons. In kind it is cell-based, mice. To be noted: 24 h. The method, then: Experiments were conducted in accordance with the ethical guidelines of H. Lundbeck A/S and the Danish legislation of animal use for scientific procedures. Cell culture was basically performed as described (Nagel et al., [2008]), with few modifications. Briefly, the mesencephalon floor was dissected from embryonic day (E) 13 mice, tissue pieces collected in HBBS, transferred to 0.1% trypsin, 0.05% DNAse (Sigma-Aldrich DN25–1G) and incubated at 37°C in a humidified atmosphere with 5% CO2 for 20 min; washed in DNAse, homogenized and centrifuged at 200× g, resuspended in medium (DMEM (Gibco 41965–039), 10% FCS, 1% P/S (Gibco, 15140–122), l.5% HEPES (Gibco, 15630–056), 1% Sodium Pyruvate (Gibco, 11360–039)) and plated on poly-L-lysine coated 96-well dishes. The medium was switched to neurobasal medium after 90 min (neurobasal (Gibco 21103–049) with 1% P/S, 2% B27 (Gibco, 17504–044), 1.25% 0.5 mM L-glutamine (Gibco, 25030–024)). […] Plates were stored at 4°C until tyrosine-hydroxylase-positive (TH-positive) neurons were counted using a Thermo Scientific Cellomics® ArrayScan® VTI HCS Reader. […] To ensure that only healthy primary cultures were assessed, we furthermore excluded experiments with total cell counts below Mean minus standard deviation (SD) of the summarized experiments. […]

Series [2] deals with differentiated SH-SY5Y neurons. The settings on record: 24 h incubation; ref Giordano et al., 2012; cited from earlier work.
The target of series [3] is T1, human GPR139 receptor (Homo sapiens, UniProt Q6DWJ6).
T1 construct: expressed in transfected cells; host or cells: CHO-K1
T1 sequence (Q6DWJ6 1-353): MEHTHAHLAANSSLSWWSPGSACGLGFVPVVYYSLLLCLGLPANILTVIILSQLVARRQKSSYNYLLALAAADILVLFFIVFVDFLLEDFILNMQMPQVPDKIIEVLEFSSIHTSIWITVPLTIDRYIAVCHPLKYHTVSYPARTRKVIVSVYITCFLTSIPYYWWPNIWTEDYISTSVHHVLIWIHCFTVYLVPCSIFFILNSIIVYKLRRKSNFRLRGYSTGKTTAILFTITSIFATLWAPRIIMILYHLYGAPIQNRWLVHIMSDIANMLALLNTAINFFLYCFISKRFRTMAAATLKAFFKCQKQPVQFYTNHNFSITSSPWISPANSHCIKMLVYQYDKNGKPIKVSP
Nature of the series: GPR139 calcium mobilization assay (CHO-K1 cells stably expressing the receptor). In kind it is cell-based. To be noted: inhibition of agonist-induced stimulation (compound 1 at EC85); read-out: IC50 (GPR139 antagonist). The method, then: EC50 and IC50 for all compounds were determined as described (Shi et al., [2011]).
All compounds were further characterized using GPR139-based Ca^2+ mobilization assays (Figure 5).
Figure 5 Additional characterization of GPR139 compounds using kinetic fluorescence measurements and concentration-response determination in calcium mobilization assays. (A–D) Examples for the kinetic of relative fluorescence units (RFU) for compound 1 and 4 and related controls, involving a two-step addition protocol. (A) Cellular fluorescence response to addition of buffer (approximately at time 0:00 min) and a second addition of buffer at 3:20 min. (B) Cellular fluorescence response to addition of the Ca^2+ ionophore and reference compound for complete release of Ca^2+ from intracellular stores, ionomycin. (C) Cellular response to addition of 10 μM compound 1 at time 0:00. (D) Cellular fluorescence in response to antagonist compound 4 (at 0:00, 50 μM) and addition of agonist compound 1 at EC85 concentration. […]
Standard molecular cloning techniques were used to generate Chinese hamster ovary (CHO-K1) cells stably expressing the human GPR139 receptor. […] Calcium flux was measured using a Hamamatsu FDSS7000 imaging-based plate reader (Hamamatsu Photonics) using 480 nm excitation light and emitted fluorescent light passed through a 525 nm emission filter and detected by a CCD camera. […]
A general note: A change in cytosolic calcium serves as a functional read-out for many receptors and channels.

Series [4] deals with primary DA midbrain neurons. As to the kind of experiment: Protection of primary DA midbrain neurons against MPP+ toxicity (TH-positive neuron count). In kind it is cell-based, mice. On the procedure: Experiments were conducted in accordance with the ethical guidelines of H. Lundbeck A/S and the Danish legislation of animal use for scientific procedures. Cell culture was basically performed as described (Nagel et al., [2008]), with few modifications. Briefly, the mesencephalon floor was dissected from embryonic day (E) 13 mice, tissue pieces collected in HBBS, transferred to 0.1% trypsin, 0.05% DNAse (Sigma-Aldrich DN25–1G) and incubated at 37°C in a humidified atmosphere with 5% CO2 for 20 min; washed in DNAse, homogenized and centrifuged at 200× g, resuspended in medium (DMEM (Gibco 41965–039), 10% FCS, 1% P/S (Gibco, 15140–122), l.5% HEPES (Gibco, 15630–056), 1% Sodium Pyruvate (Gibco, 11360–039)) and plated on poly-L-lysine coated 96-well dishes. The medium was switched to neurobasal medium after 90 min (neurobasal (Gibco 21103–049) with 1% P/S, 2% B27 (Gibco, 17504–044), 1.25% 0.5 mM L-glutamine (Gibco, 25030–024)). After 6 days in vitro (DIV), cultures were treated with 1 μM of three different GPR139 agonists and in some experiments, concomitantly, with 10 μM of the antagonist for1 h, before exposing them to 0–1 μM MPP^+, 0–50 μM 6-OHDA or 0–100 nM rotenone for 24 h. For the MPP^+ treated cultures, it was also tested whether the effect of the GPR139 agonists could be blocked by concomitantly applying 10 μM GPR139 antagonist (IC50 3 μM). Subsequently, cells were fixed in 4% PFA/PBS for 10 min, washed with PBS, incubated in 0.5% BSA/0.1% Triton-X/5% porcine serum for 20 min, and incubated for 24 h in rabbit anti-tyrosine hydroxylase antibodies (1:1000 in PBS, Millipore AB152); washed 2 × 5 min in PBS. Secondary antibodies (Alexa 488 rabbit) were applied 1:200 in PBS with 0.2 μg/ml Hoechst dye for 1 h and washed 2 × 5 min in PBS. One drop of DAKO fluorescent mounting medium were applied into each well. Plates were stored at 4°C until tyrosine-hydroxylase-positive (TH-positive) neurons were counted using a Thermo Scientific Cellomics® ArrayScan® VTI HCS Reader. Results were normalized against control condition and compared. Experiments were only included in the evaluation if at least 30% cell death was induced at the highest toxin concentration compared to non-treated control wells. To ensure that only healthy primary cultures were assessed, we furthermore excluded experiments with total cell counts below Mean minus standard deviation (SD) of the summarized experiments. […]
To examine whether GPR139 agonists protect against toxin-induced DA cell death, we first treated cultured DA midbrain neurons with the GPR139 agonists and MPP^+ . Subsequently, we determined survival of TH-positive neurons.
Figure 8 Three different GPR139 surrogate agonists protect primary dopaminergic (DA) midbrain neurons against 1-methyl-4-phenyl-pyridinium ionMPP^+ toxicity. […] TH-positive neurons were counted and normalized to numbers under control conditions. […] Each data point is calculated from 12 (0 μM and 1 μM MPP^+ concentrations); 4 (0.125 μM); 7 (0.25 μM); or 8 (0.5 μM) independent measurements.
Primary midbrain cultures were pretreated with the indicated amount of GPR139 agonist compound 3 and with either vehicle ( [drawing 5] ), or 1 μM MPP^+ ( [drawing 6] ); or MPP^+ with 10 μM of the antagonist compound 4 ( [drawing 7] ), or with the antagonist compound 4 alone ( [drawing 8] ). The number of TH-positive neurons was determined 24 h later and normalized to control conditions. […]

A further series relates to SH-SY5Y cells. The arrangement: method as in Song et al., 2012. The settings on record: ref Song et al., 2012; cited from earlier work.
In series [5] the target is norepinephrine transporter (Homo sapiens, UniProt P23975). The arrangement: method as in Shi et al., 2011. To be noted: 10 μM; ref Shi et al., 2011; cited from earlier work.
Chain of norepinephrine transporter (P23975 whole entry, species assumed): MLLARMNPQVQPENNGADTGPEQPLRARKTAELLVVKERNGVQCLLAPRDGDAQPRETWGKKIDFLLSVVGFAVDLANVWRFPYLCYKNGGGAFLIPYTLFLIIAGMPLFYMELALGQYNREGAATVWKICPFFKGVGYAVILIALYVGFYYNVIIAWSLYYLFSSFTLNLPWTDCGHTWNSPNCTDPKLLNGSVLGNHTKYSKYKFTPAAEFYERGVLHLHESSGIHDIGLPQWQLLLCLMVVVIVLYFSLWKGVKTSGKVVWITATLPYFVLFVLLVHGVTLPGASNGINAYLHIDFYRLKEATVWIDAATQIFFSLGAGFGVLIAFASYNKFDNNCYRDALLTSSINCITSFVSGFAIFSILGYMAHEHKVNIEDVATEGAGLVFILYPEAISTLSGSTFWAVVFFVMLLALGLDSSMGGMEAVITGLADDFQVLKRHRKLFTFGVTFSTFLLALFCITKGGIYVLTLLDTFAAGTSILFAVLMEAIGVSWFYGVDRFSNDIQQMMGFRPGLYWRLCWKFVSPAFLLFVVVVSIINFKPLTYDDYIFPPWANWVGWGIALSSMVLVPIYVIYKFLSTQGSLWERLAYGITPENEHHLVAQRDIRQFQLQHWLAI
The target of the next series is DAT (Homo sapiens, UniProt Q01959). Also noted: method as in Shi et al., 2011. The settings on record: 10 μM; ref Shi et al., 2011; cited from earlier work.
Chain of DAT (Q01959 whole entry, species assumed): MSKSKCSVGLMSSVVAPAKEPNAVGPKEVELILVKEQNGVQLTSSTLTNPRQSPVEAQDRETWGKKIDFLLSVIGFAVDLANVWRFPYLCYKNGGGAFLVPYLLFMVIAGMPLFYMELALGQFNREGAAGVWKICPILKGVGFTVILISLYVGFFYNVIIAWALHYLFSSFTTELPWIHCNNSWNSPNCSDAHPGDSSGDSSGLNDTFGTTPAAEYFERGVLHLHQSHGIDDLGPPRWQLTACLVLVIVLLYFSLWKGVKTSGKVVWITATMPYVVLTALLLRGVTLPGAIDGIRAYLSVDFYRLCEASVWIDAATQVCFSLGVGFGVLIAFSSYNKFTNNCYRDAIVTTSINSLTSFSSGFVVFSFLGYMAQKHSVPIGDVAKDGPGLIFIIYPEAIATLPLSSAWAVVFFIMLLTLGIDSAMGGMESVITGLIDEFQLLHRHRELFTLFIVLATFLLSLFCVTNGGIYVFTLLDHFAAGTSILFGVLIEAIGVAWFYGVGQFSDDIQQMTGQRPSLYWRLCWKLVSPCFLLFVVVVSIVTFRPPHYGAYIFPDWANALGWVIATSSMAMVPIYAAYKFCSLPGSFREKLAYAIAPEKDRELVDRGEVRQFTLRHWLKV
Series [6] deals with primary DA midbrain neurons. As to the kind of experiment: Protection of primary DA midbrain neurons against rotenone toxicity (TH-positive neuron count). In kind it is cell-based, mice. To be noted: 1 μM agonist 1 h, 0-100 nM rotenone 24 h, n = 4. On the procedure: (§1) Experiments were conducted in accordance with the ethical guidelines of H. Lundbeck A/S and the Danish legislation of animal use for scientific procedures. Cell culture was basically performed as described (Nagel et al., [2008]), with few modifications. […] Plates were stored at 4°C until tyrosine-hydroxylase-positive (TH-positive) neurons were counted using a Thermo Scientific Cellomics® ArrayScan® VTI HCS Reader. […] To ensure that only healthy primary cultures were assessed, we furthermore excluded experiments with total cell counts below Mean minus standard deviation (SD) of the summarized experiments. […]
Mesencephalic cultures were treated with 1 μM of either one of the GPR139 agonists compound 1 ( [drawing 13] ), compound 2 ( [drawing 14] ), or compound 3 ( [drawing 15] ), or vehicle ( [drawing 16] ) for 1 h before exposing them to 0–100 nM of rotenone. […] TH-positive neurons were counted and normalized to control numbers (100%).

Details of series [7]: method as in Shi et al., 2011. The settings on record: ref Shi et al., 2011; cited from earlier work.
Series [8] deals with T1, human GPR139 receptor. Also noted: method as in Shi et al., 2011. To be noted: Ca2+ mobilization; ref Shi et al., 2011; read-out: EC50 (GPR139 agonist); cited from earlier work.
Series [9] deals with primary DA midbrain neurons. As to the kind of experiment: Protection of primary DA midbrain neurons against 6-OHDA toxicity (TH-positive neuron count). In kind it is cell-based, mice. The settings on record: 1 μM agonist 1 h, 0-50 μM 6-OHDA 24 h. On the procedure: as §1
Neuronal midbrain cultures were pretreated with 1 μM of either one of the agonists compound 1 ( [drawing 9] ), compound 2 ( [drawing 10] ), or compound 3 ( [drawing 11] ), or vehicle ( [drawing 12] ) for 1 h, followed by treatment with the indicated concentrations of 6-hydroxydopamine (6-OHDA) for 24 h. TH-positive neurons were counted and normalized to control numbers.

pEC50, pIC50: −log10 of the molar value. Where “and” joins values, the source holds several entries; their conditions need not be identical. Equal entries are not always repeated. Where two headings read alike, the source gives them in different places.

Turning to `C=C(C)[C@H]1Cc2c(ccc3c2O[C@@H]2COc4cc(OC)c(OC)cc4[C@@H]2C3=O)O1` [rotenone], the “average DA neuronal cell death” value in series [1] (100 nM rotenone) was found to be 60%. Moreover, the “concentration giving 50% cell death” value in series [2] is 0.005 µM.

Regarding `Cc1c(CC(Cl)(Cl)Cl)c2c(n1-c1ccc(F)cc1)CCCC2=O` [compound 4, 1-(4-Fluoro-phenyl)-2-methyl-3-(2,2,2-trichloro-ethyl)-1,5,6,7-tetrahydro-indol-4-one, reference compound], the pIC50 (in general, −log10 of the IC50, conventionally taken in molar units) at human GPR139 receptor [3] was 5.13 and 5.52. The “effect of antagonist on protection by the agonists against MPP+” value in [4] (10 μM antagonist co-applied with agonist, 1 μM MPP+) is on record as “blocked the protective effect”. The “effect of antagonist alone on DA cell survival” value in [4] (10 μM antagonist, no MPP+) is reported as “did not have an effect”.

For the compound `COc1ccc(CCc2cc(OC)c(O)c(OC)c2)cc1OC` [Chrysotoxine], in the series on SH-SY5Y cells, the “antagonism of MPP+ toxicity” value is “could antagonize” and the “antagonism of rotenone toxicity” value is recorded as “not rotenone”.

In the case of `COc1cc(OC)cc(C(=O)NNC(=O)Nc2cccc3ccccc23)c1` [compound 1, 2-(3,5-Dimethoxybenzoyl)-N-(1-naphthyl)-hydrazinecarboxamide], the “inhibition of binding to the norepinephrine transporter” value in series [5] is −8%. Also, the “inhibition of binding to the DAT” value at DAT is 4%. The “protection against rotenone toxicity” value in series [6] was “do not protect”. In series [4] (1 μM agonist 1 h, 1 μM MPP+ 24 h, p ≤ 0.05 vs vehicle), the “protection against MPP+ toxicity” value is recorded as “significant”. Besides, the “ADME properties for in vivo testing” value in series [7] is “does not hold the ADME properties necessary for in vivo testing”. The pEC50 (usually the EC50 on a negative log10 scale, so that one unit is a factor of ten) at human GPR139 receptor [8] is 7.41. In [9], the “protection against 6-OHDA toxicity” value is reported as “do not protect”.

With `C[n+]1ccc(-c2ccccc2)cc1` [MPP^+, 1-methyl-4-phenylpyridinium], in [1] (1 μM MPP+), the “average DA neuronal cell death” value was 40%. For the same compound, the “concentration giving 50% cell death” value in series [2] was 5000 µM.

Regarding `NCCc1cc(O)c(O)cc1O` [6-OHDA, 6-hydroxydopamine], the “concentration giving 50% cell death” value in series [2] was 100 µM.
